The values below come from the Deep4Chem optical property database.

The structures appear in SMILES notation.

A short description of the first data set: solvent given as SMILES. The following applies: in C1CCCCC1.
Consider `Cc1ccc(-c2cc(-c3ccccc3)c(C#N)c(=S)[nH]2)cc1`, for which the emission maximum worked out at 504 nm.
Same read-out and setting: next, `C[Si](C)(C)[Si](C)(C)c1ccc2cc3ccccc3cc2c1`: 411 nm; `CCCCCCC(CCCCCC)n1c(=O)c2c3ccc4cccc5c6cccc7ccc(c2c1=O)c(c76)c3c45`: 471 nm; `Oc1ccccc1`: 294.99 nm.
The same measure, in the same setting: to `COc1ccc([Si](C)(C)C)c2ccccc12` belongs 327 nm; to `CCCCCCCCCCCCC(CCCCCCCCCC)Cn1c2cc(/C=C/c3nc4ccccc4s3)c3cccc4c5cccc6c(/C=C/c7nc8ccccc8s7)cc1c(c65)c2c34` (stereo not drawn), 570 nm.

The same data set, now with this note: in C1CCOC1.
In the case of `CCOC(=O)COc1ccc(/C=C/C2=C3c4ccccc4C(c4ccc[nH]4)=[N+]3[B-](F)(F)n3ccc(C)c32)cc1`, the emission maximum turned out to be 625 nm.
Take `c1ccc(-c2ccc(-c3ccc(N(c4ccccc4)c4ccccc4)cc3)c3nsnc23)cc1`: the emission maximum is 578 nm.
Still for that read-out and setting: next, `Cc1ccc(-c2c3ccc([nH]3)c3nc(c(-c4ccc([N+](=O)[O-])cc4)c4ccc([nH]4)c4ccc([nH]4)c(-c4ccc(C)cc4)c4ccc2o4)C=C3)cc1`: 758 nm; `CC1CCC(O)(c2ccc(-c3cccs3)s2)CC1` (stereo not drawn): 412 nm.

Still in this data set, the particulars now being: in C1COCCO1.
For the molecule `Cc1ccc(-c2cc(-c3ccccc3)c(C#N)c(=S)[nH]2)cc1`, the emission maximum is 506 nm.
`COc1ccc(C2=N/C(=C\c3ccc(C#N)cc3)C(=O)N2)cc1OC` returned an emission maximum of 482 nm.

Still in this data set, the particulars now being: in CC#N.
Molecule `CCOC(=O)COc1ccc(/C=C/C2=C3c4ccccc4C(c4ccc[nH]4)=[N+]3[B-](F)(F)n3ccc(C)c32)cc1` gave an emission maximum of 617 nm.
The molecule `Cc1ccc(-c2cc(-c3ccccc3)c(C#N)c(=S)[nH]2)cc1` showed an emission maximum of 488 nm.
`C[Si](C)(C)[Si](C)(C)c1ccc2cc3ccccc3cc2c1` came in with an emission maximum of 412 nm.
On the same count and under the same terms, next, `COc1ccc(C#Cc2cc3ccccc3oc2=O)cc1`: 456 nm; `CC1CCC(O)(c2ccc(-c3cccs3)s2)CC1` (stereo not drawn): 405 nm; `CCCCCCC(CCCCCC)n1c(=O)c2c3ccc4cccc5c6cccc7ccc(c2c1=O)c(c76)c3c45`: 527 nm.
For the molecule `CC1=[N+]2C(=C(c3ccccc3)c3c4ccccc4c(C)n3[B-]2(F)F)c2ccccc21`, the emission maximum amounted to 606 nm.
Still for that read-out and setting: next, `N#Cc1nn(-c2ccccc2C(F)(F)F)nc1N1CCCC1`: 433 nm; `N#C/C(=C\c1ccc([N+](=O)[O-])cc1)c1nc(-c2ccccc2)cs1`: 552 nm.
The molecule `CCCCCCCCCCCCC(CCCCCCCCCC)Cn1c2cc(/C=C/c3nc4ccccc4s3)c3cccc4c5cccc6c(/C=C/c7nc8ccccc8s7)cc1c(c65)c2c34` (stereo not drawn) came in with an emission maximum of 581 nm.
Still for that read-out and setting: next, `CCN(CC)c1ccc2cc(/C=C/C3=CC(/C=C/c4cc5ccc(N(CC)CC)cc5oc4=O)=[O+][B-](F)(F)O3)c(=O)oc2c1`: 725 nm; `Cc1cc(O)c(C(=O)/C=C/c2ccc(Cl)cc2Cl)c(=O)o1`: 473 nm.

The data set is the same for the next values; noted with them: in CC(C)=O.
In turn, `c1ccc(-c2ccc(-c3ccc(N(c4ccccc4)c4ccccc4)cc3)c3nsnc23)cc1` gave an emission maximum of 619 nm.
`CCCCCCC(CCCCCC)n1c(=O)c2c3ccc4cccc5c6cccc7ccc(c2c1=O)c(c76)c3c45` registered an emission maximum of 514 nm.
`CCN(CC)c1ccc2cc(/C=C/C3=CC(/C=C/c4cc5ccc(N(CC)CC)cc5oc4=O)=[O+][B-](F)(F)O3)c(=O)oc2c1` gave an emission maximum of 710 nm.

The same data set, now with this note: in CCCCCC.
For `CCOC(=O)COc1ccc(/C=C/C2=C3c4ccccc4C(c4ccc[nH]4)=[N+]3[B-](F)(F)n3ccc(C)c32)cc1`, the emission maximum amounted to 630 nm.
Same read-out and setting: next, `N#Cc1c(-n2c3ccccc3c3ccccc32)c(-n2c3ccccc3c3ccccc32)c(-n2c3ccccc3c3ccccc32)c(-n2c3ccccc3c3ccccc32)c1-n1c2ccccc2c2ccccc21`: 451.82 nm.
Still for that read-out and setting: to `c1ccc(-c2ccc(-c3ccc(N(c4ccccc4)c4ccccc4)cc3)c3nsnc23)cc1` belongs 526 nm; to `CC1CCC(O)(c2ccc(-c3cccs3)s2)CC1` (stereo not drawn), 408 nm.
In turn, `CCCCCCC(CCCCCC)n1c(=O)c2c3ccc4cccc5c6cccc7ccc(c2c1=O)c(c76)c3c45` gave an emission maximum of 469 nm.

Staying with this data set, now noted: in CCCCO.
`Cc1ccc(-c2cc(-c3ccccc3)c(C#N)c(=S)[nH]2)cc1` returned an emission maximum of 503 nm.

Still in this data set, the particulars now being: in CCCO.
In turn, `Cc1ccc(-c2cc(-c3ccccc3)c(C#N)c(=S)[nH]2)cc1` had an emission maximum of 490 nm.

The data set is the same for the next values; noted with them: in CCO.
With `Cc1ccc(-c2cc(-c3ccccc3)c(C#N)c(=S)[nH]2)cc1`, the emission maximum worked out at 462 nm.
`N#Cc1c(-n2c3ccccc3c3ccccc32)c(-n2c3ccccc3c3ccccc32)c(-n2c3ccccc3c3ccccc32)c(-n2c3ccccc3c3ccccc32)c1-n1c2ccccc2c2ccccc21` yielded an emission maximum of 515.31 nm.
Same read-out and setting: to `Clc1ncc(-c2c3ccccc3c(-c3cnc(Cl)nc3)c3ccccc23)cn1` belongs 428 nm; to `CC1CCC(O)(c2ccc(-c3cccs3)s2)CC1` (stereo not drawn), 406 nm; to `CCCCCCC(CCCCCC)n1c(=O)c2c3ccc4cccc5c6cccc7ccc(c2c1=O)c(c76)c3c45`, 550 nm.

Staying with this data set, now noted: in CCOC(C)=O.
On to `Cc1ccc(-c2cc(-c3ccccc3)c(C#N)c(=S)[nH]2)cc1`, for which the emission maximum was 522 nm.
On the same count and under the same terms, to `CCN(CC)c1ccc2cc(/C=C/C3=CC(/C=C/c4cc5ccc(N(CC)CC)cc5oc4=O)=[O+][B-](F)(F)O3)c(=O)oc2c1` belongs 659 nm.

Staying with this data set, now noted: in CCOCC.
For `Cc1ccc(-c2cc(-c3ccccc3)c(C#N)c(=S)[nH]2)cc1`, the emission maximum was found to be 524 nm.
For `c1ccc(-c2ccc(-c3ccc(N(c4ccccc4)c4ccccc4)cc3)c3nsnc23)cc1`, the emission maximum turned out to be 558 nm.
